For data set [1], the system named is 3T3-L1. As to the kind of experiment: Cytotoxicity against mouse 3T3-L1 pre-adipocyte cells assessed as reduction in cell viability >20 uM incubated for 48 hrs by MTT assay. Type of data set: toxicity, cell-based. The settings on record: 3t3-l1, 48 h. On the technique in general: Tetrazolium assays rely on reduction of a dye to a coloured formazan, in cell work by metabolically active cells.

The subject of data set [2] is 3T3-L1. As to the kind of experiment: Cytotoxicity against mouse 3T3-L1 pre-adipocyte cells assessed as reduction in cell viability at 20 uM incubated for 48 hrs by MTT assay. The settings on record: 3t3-l1, 48 h. Type of data set: toxicity, cell-based.
In data set [3] the test system is 3T3-L1. As to the kind of experiment: Anti-adipogenic activity in MDI-cocktail differentiated mouse 3T3-L1 pre-adipocyte cells assessed as inhibition of adipogenesis at 20 uM by Oil Red O staining based microscopic analysis relative to control. Type of data set: functional.
Data set [4] relates to 3T3-L1. As to the kind of experiment: Anti-adipogenic activity in MDI-cocktail differentiated mouse 3T3-L1 pre-adipocyte cells assessed as inhibition of adipogenesis at 30 uM by Oil Red O staining based microscopic analysis. Type of data set: functional, cell-based.
In data set [5] the test system is 3T3-L1. Put plainly: Anti-adipogenic activity in MDI-cocktail differentiated mouse 3T3-L1 pre-adipocyte cells assessed as inhibition of adipogenesis by Oil Red O staining based microscopic analysis. Type of data set: functional, cell-based.

From ChEMBL document CHEMBL5634151, “Anti-adipogenic action of a novel oxazole derivative through activation of AMPK pathway” (Eur J Med Chem, 2023) come the findings set out here.

Calls of active or inactive are those of the source. No cut-off for these calls is given here.

What is called inhibition is the drop in the measured response relative to a control, in per cent.

Take `CC(C)=CC[n+]1cccc(-c2ncc(-c3ccc(Cl)cc3)o2)c1.[Br-]`: in the data set with 3T3-L1 [1], the Activity result was “Toxic”.

As to `FC(F)(F)c1ccc(C[n+]2cccc(-c3ncc(-c4ccc(Cl)cc4)o3)c2)cc1.[Br-]`, the Activity result in the data set on 3T3-L1 [1] was “Toxic”.

Turning to `Cc1ccc(-c2cnc(-c3ccc[n+](Cc4ccc(Cl)c(Cl)c4)c3)o2)cc1.[Br-]`, the Activity entry with 3T3-L1 [2] and in the data set on 3T3-L1 [1] was “Toxic” throughout.

As to `Cc1cccc(C[n+]2cccc(-c3ncc(-c4ccccc4)o3)c2)c1.[Br-]`, the Activity entry with 3T3-L1 [1] was “Toxic”.

Consider `CC(C)=CC[n+]1cccc(-c2ncc(-c3ccc(C)cc3)o2)c1.[Br-]`, for which the Activity entry in the data set on 3T3-L1 [2] and in the data set with 3T3-L1 [1] was “Toxic” in each case.

As to `FC(F)(F)c1ccc(C[n+]2cccc(-c3ncc(-c4ccccc4)o3)c2)cc1.[Br-]`, the Activity result in the data set with 3T3-L1 [1] is “Toxic”.

With `COc1ccc(-c2cnc(-c3ccc[n+](Cc4ccc(Cl)cc4)c3)o2)cc1.[Br-]`, in the data set on 3T3-L1 [1], the Activity entry is listed as “Toxic”.

For the molecule `COc1ccc(-c2cnc(-c3ccc[n+](Cc4cccc(C)c4)c3)o2)cc1.[Br-]`, in the data set with 3T3-L1 [1], the Activity entry is “Toxic”.

Regarding `Cc1ccc(-c2cnc(-c3ccc[n+](Cc4ccc(F)cc4)c3)o2)cc1.[Br-]`, the Activity entry with 3T3-L1 [1] is “Toxic”.

Take `Br.Cc1ccc(-c2cnc(-c3ccc[n+](Cc4ccc([N+](=O)[O-])cc4)c3)o2)cc1`: the Activity entry in the data set with 3T3-L1 [1] is recorded as “Toxic”.

Consider `Br.O=[N+]([O-])c1ccc(C[n+]2cccc(-c3ncc(-c4ccccc4)o3)c2)cc1`, for which the Activity entry in the data set on 3T3-L1 [1] is “Toxic”.

In the case of `COc1ccc(-c2cnc(-c3ccc[n+](CC=C(C)C)c3)o2)cc1.[Br-]`, the Activity result in the data set with 3T3-L1 [1] is given as “Toxic”.

For `COc1ccc(-c2cnc(-c3ccc[n+](Cc4ccc(F)cc4)c3)o2)cc1.[Br-]`, the Activity entry with 3T3-L1 [1] is “Toxic”.

With `Br.O=[N+]([O-])c1ccc(C[n+]2cccc(-c3ncc(-c4ccc(Cl)cc4)o3)c2)cc1`, the Activity result in the data set with 3T3-L1 [1] is recorded as “Toxic”.

In the case of `Fc1ccc(C[n+]2cccc(-c3ncc(-c4ccc(Cl)cc4)o3)c2)cc1.[Br-]`, the Activity result in the data set on 3T3-L1 [1] is “Toxic”.

On to `Clc1ccc(C[n+]2cccc(-c3ncc(-c4ccc(Cl)cc4)o3)c2)cc1.[Br-]`, for which the Activity result in the data set with 3T3-L1 [1] was “Toxic”.

With `Cc1ccc(-c2cnc(-c3ccc[n+](Cc4ccc(C(F)(F)F)cc4)c3)o2)cc1.[Br-]`, in the data set on 3T3-L1 [3], the inhibition at 20 µM was > 70%. Moreover, the Activity entry in the data set with 3T3-L1 [2] was “Non-Toxic”; in the data set on 3T3-L1 [1] it was “Toxic”.

`Clc1ccc(C[n+]2cccc(-c3ncc(-c4ccccc4)o3)c2)cc1Cl.[Br-]`: the inhibition at 20 µM in the data set on 3T3-L1 [3] is > 70%. Moreover, the Activity entry with 3T3-L1 [2] is listed as “Non-Toxic”; with 3T3-L1 [1] it was “Toxic”.

For the molecule `COc1ccc(-c2cnc(-c3ccc[n+](C/C=C(/C)CCC=C(C)C)c3)o2)cc1.[Br-]`, the Activity entry in the data set on 3T3-L1 [2] and in the data set with 3T3-L1 [1] was “Toxic” each time.

For `COc1ccc(-c2cnc(-c3ccc[n+](Cc4ccc(Cl)c(Cl)c4)c3)o2)cc1.[Br-]`, the inhibition at 20 µM with 3T3-L1 [3] is > 70%. Besides, the Activity result with 3T3-L1 [2] is “Non-Toxic”; with 3T3-L1 [1], “Toxic”.

For `CC(C)=CCC/C(C)=C\C[n+]1cccc(-c2ncc(-c3ccc(Cl)cc3)o2)c1.[Br-]`, the Activity result with 3T3-L1 [2] and in the data set with 3T3-L1 [1] was “Toxic” in each case.

As for `CC(C)=CCC/C(C)=C\C[n+]1cccc(-c2ncc(-c3ccc(C)cc3)o2)c1.[Br-]`, the Activity result in the data set on 3T3-L1 [2] and in the data set with 3T3-L1 [1] was “Toxic” throughout.

For `CC(C)=CC[n+]1cccc(-c2ncc(-c3ccccc3)o2)c1.[Br-]`, the Activity result with 3T3-L1 [1] was “Toxic”.

In the case of `Clc1ccc(C[n+]2cccc(-c3ncc(-c4ccccc4)o3)c2)cc1.[Br-]`, the Activity result with 3T3-L1 [1] is given as “Toxic”.

Consider `CC(C)=CCOc1ccc(-c2cnc(-c3cccnc3)o2)cc1`, for which the result in the data set on 3T3-L1 [4] was Active. Moreover, the IC50 in the data set on 3T3-L1 [5] (read-out: IC50) was 103 µM; with 3T3-L1 [5] (read-out: pIC50 (converted)), 104 µM.

For `Br.COc1ccc(-c2cnc(-c3ccc[n+](Cc4ccc([N+](=O)[O-])cc4)c3)o2)cc1`, the Activity entry with 3T3-L1 [1] is on record as “Toxic”.

As for `Cc1cccc(C[n+]2cccc(-c3ncc(-c4ccc(Cl)cc4)o3)c2)c1.[Br-]`, in the data set on 3T3-L1 [3], the inhibition at 20 µM was > 70%. The values for the Activity result in the data set with 3T3-L1 [2] and in the data set with 3T3-L1 [1] were “Non-Toxic” and “Toxic”, respectively.

On to `Fc1ccc(C[n+]2cccc(-c3ncc(-c4ccccc4)o3)c2)cc1.[Br-]`, for which the Activity result with 3T3-L1 [1] is reported as “Toxic”.

On to `COc1ccc(-c2cnc(-c3ccc[n+](Cc4ccc(C(F)(F)F)cc4)c3)o2)cc1.[Br-]`, for which the Activity result with 3T3-L1 [1] is reported as “Toxic”.

Turning to `Clc1ccc(-c2cnc(-c3ccc[n+](Cc4ccc(Cl)c(Cl)c4)c3)o2)cc1.[Br-]`, the Activity result in the data set on 3T3-L1 [2] and in the data set with 3T3-L1 [1] was “Toxic” throughout.

As to `Cc1ccc(-c2cnc(-c3ccc[n+](Cc4ccc(Cl)cc4)c3)o2)cc1.[Br-]`, in the data set with 3T3-L1 [1], the Activity entry is given as “Toxic”.
